The values below come from patent publication US9290487B2, “Pharmaceutical composition for treating diabetes” (Ajinomoto Co., Inc., priority 2011, dated 2016).

In test [1] the target is human GYS1 (glycogen synthase) (Homo sapiens (Human), UniProt P13807). Nature of the test: Measurement of glycogen synthase activity (coupled pyruvate kinase/lactate dehydrogenase assay, absorbance at 340 nm). Type of test: biochemical. The following applies: concentration inducing relative activity of 50% (100% = Ex. 1 of WO/2011/058154 at 10 μM). On the procedure: A human GYS1 expression plasmid (pCDNA3.1(+)-hGYS1) was constructed by the following method. Using a human skeletal muscle cDNA of Human MTC Panel I (Takara Bio Inc., 636742) as a template, a human GYS1 gene was amplified by a PCR method using cloning primers (Forward Primer: ATGCCTTTAAACCGCAC (SEQ ID NO: 1), Reverse Primer: TTAGTTACGCTCCTCGC (SEQ ID NO: 2)). Using the amplified human GYS1 sequence as a template, a restriction enzyme sequence was added by a PCR method using sub-cloning primers (Forward Primer: […] (SEQ ID NO: 3), Reverse Primer: […] (SEQ ID NO: 4)). Then, the human GYS1 gene was introduced between a Xho I site and a Xba I site of pCDNA3.1(+) (Invitrogen Corporation, V790-20).
Glycogen synthase was prepared by the following method according to the published article (THE JOURNAL OF BIOLOGICAL CHEMISTRY Vol. 269, No. 41, 25534-25542, 1994). Human kidney-derived HEK293T cells were seeded in a dish (Thermo Fisher Scientific Inc., 168381) using a 10% FBS-containing DMEM (Nacalai Tesque, Inc., 0845874) medium, and cultured overnight. Then, using Lipofectamine LTX (Invitrogen Corporation, 15338-100), the human GYS1 expression vector was transfected according to the attached manual. After culturing under conditions of 37° C. and 5% CO2 for 2 days, the resultant was dissolved in a lysis buffer (50 mM Tris-HCl (pH 8.0), 10 mM EDTA, 2 mM EGTA, 100 mM NaF, 1 mM PMSF, 1 mM DTT, 1× Complete (Roche Diagnostics K. K., 1873580)), homogenized, and then centrifuged at 16000×g at 4° C. for 15 minutes. To the precipitated fraction, a lysis buffer was added. Re-dissolved fractions were used as glycogen synthase for evaluation.
The glycogen synthase activity was measured by the following method. To a polystyrene 96-well plate, a solution containing 30 mM glycylglycine (pH 7.3), 40 mM KCl, 20 mM MgCl2, 9.2% DMSO containing one of the test compounds at various concentrations, and 10 mM glucose-6-phosphate (Sigma-Aldrich Corporation, G7879) was added by 12 μL/well.
Next, a substrate solution containing 30 mM glycylglycine (pH 7.3), 4.3 mg/mL of glycogen (Sigma-Aldrich Corporation, G8876), 21.6 mM UDP-glucose (Sigma-Aldrich Corporation, U4625), 21.6 mM phosphoenolpyruvic acid (Sigma-Aldrich Corporation, P0564), and 4.05 mM NADH (Sigma-Aldrich Corporation, N8129) was added by 18 μL/well.
Further, an enzyme solution containing 50 mM Tris-HCl (pH 8.0), 27 mM DTT (Nacalai Tesque, Inc., 14128-04), 0.2 mg/mL of bovine serum albumin, 0.17 mg/mL of the glycogen synthase, 1.5 μL of a pyruvate kinase/lactate dehydrogenase solution (Sigma-Aldrich Corporation, P0294) was added by 18 μL/well to prepare a reaction solution. After the reaction solution was incubated (at 30° C. for 25 minutes for Examples 1 to 10, at 37° C. for 20 minutes for Examples 11 to 75), the absorbance at 340 nm was measured using Benchmark Plus (Bio-Rad Laboratories, Inc.).
The activities of the test compounds were calculated by the following method. The change in the absorbance (ΔA340) was calculated by subtracting the absorbance at 340 nm of the reaction solution containing the compound and DMSO from the absorbance at 340 nm of a reaction solution not containing the compound but containing only DMSO. The ΔA340 of the reaction solution containing the compound of Example 1 in WO/2011/058154 at the final concentration of 10 μM was taken as 100% to calculate the relative activity (%) of the test compounds at various concentrations. EC50 representing the concentration of the compound which induces an increase in the relative activity to 50% was calculated using XLfit (idbs).

Another test concerns the target PPAR-α (Homo sapiens (Human), UniProt Q07869). The experiment in a line: Measurement of PPAR-α activity (GAL4 luciferase reporter assay in CV-1 cells). Type of test: cell-based. To be noted: 100(A/B), B = compound in WO/2011/058154 at 100 μM, read-out: PPARα relative fold induction (%). On the procedure:
The PPAR-α activity was measured according to the published article (THE JOURNAL OF BIOLOGICAL CHEMISTRY Vol. 270, No. 22, 12953-12956, 1995).
Plasmids used for the PPAR-α activity measurement were constructed as follows. A luciferase expression plasmid (UASx5-TK-Luc) used was obtained by introducing a sequence, in which five yeast GAL4-binding sequences are linked in tandem, upstream of a thymidine kinase promoter of pTAL-Luc (Takara Bio Inc., 6252-1). A PPAR-α receptor expression plasmid (hGR-GAL4-hPPARα) used was obtained by introducing a human GR N-terminal region (1-76 aa), a yeast GAL4 DNA-binding region (1-147 aa), and a PPARα ligand-binding region (167-468 aa) between a Not I site and a Sal I site of pExchange-1 Core Vector (Invitrogen Corporation, 211176).
A reporter assay was conducted by the following method using Cercopithecus aethiops kidney-derived CV-1 cells. The CV-1 cells were seeded in a 96-well plate (Thermo Fisher Scientific Inc., 4938) at 2×10^4 cells/well using a 10% FBS-containing DMEM (Nacalai Tesque, Inc., 0845874) medium. After culturing under conditions of 37° C. and 5% CO2 for 2 hours, the plasmids were transfected. Lipofectamine LTX (Invitrogen Corporation, 15338-100) was used for the transfection according to the attached manual. The plasmid solution was prepared by adding a mixture solution of the luciferase expression plasmid and the PPAR-α receptor expression plasmid to OPTI-MEM I (Invitrogen Corporation, 11058-021). After the transfection was conducted, the test compound was added, and cultured at 37° C. in the presence of 5% CO2 for 18 to 20 hours. After the culturing was completed, the luciferase activity was measured with Luminescensor JNR (ATTO) using Bright-Glo (Promega Corporation, E2620).
The fold induction of PPAR-α by the test compounds was calculated by the following method. For the compounds of Examples 1, 4, 5, 7, and 9, PPAR-α relative fold induction (%) was defined as 100 (A/B), where A represents the maximum value of PPAR-α activities with the test compound at 0.3 μM, 1 μM, 3 μM, 10 μM, 30 μM, and 100 μM, and B represents the PPAR-α activity with the compound in WO/2011/058154 at 100 μM. For the compounds of Examples 11, 15, 19, 22, 26, and 32, PPAR-α relative fold induction (%) was defined as 100 (A/B), where A represents the maximum value of PPAR-α activities with the test compound at 3 μM, 10 μM, 30 μM, and 100 μM, and B represents the PPAR-α activity with the compound in WO/2011/058154 at 100 μM.
On the technique in general: A reporter such as luciferase makes a cellular process visible.

Setting [2] is: incubation at 30° C. for 25 minutes (Examples 1 to 10).
Where [3] appears, read: A = maximum activity at 0.3, 1, 3, 10, 30 and 100 μM.
Where [4] appears, read: A = maximum activity at 3, 10, 30 and 100 μM.
[5] abbreviates: incubation at 37° C. for 20 minutes (Examples 11 to 75).
Setting [6] is: test concentrations not stated for these examples.

Structures can show the parent of a compound that is named as a salt. Where two headings read alike, the source gives them in different places.

Sequence of human GYS1 (glycogen synthase) (P13807 whole entry): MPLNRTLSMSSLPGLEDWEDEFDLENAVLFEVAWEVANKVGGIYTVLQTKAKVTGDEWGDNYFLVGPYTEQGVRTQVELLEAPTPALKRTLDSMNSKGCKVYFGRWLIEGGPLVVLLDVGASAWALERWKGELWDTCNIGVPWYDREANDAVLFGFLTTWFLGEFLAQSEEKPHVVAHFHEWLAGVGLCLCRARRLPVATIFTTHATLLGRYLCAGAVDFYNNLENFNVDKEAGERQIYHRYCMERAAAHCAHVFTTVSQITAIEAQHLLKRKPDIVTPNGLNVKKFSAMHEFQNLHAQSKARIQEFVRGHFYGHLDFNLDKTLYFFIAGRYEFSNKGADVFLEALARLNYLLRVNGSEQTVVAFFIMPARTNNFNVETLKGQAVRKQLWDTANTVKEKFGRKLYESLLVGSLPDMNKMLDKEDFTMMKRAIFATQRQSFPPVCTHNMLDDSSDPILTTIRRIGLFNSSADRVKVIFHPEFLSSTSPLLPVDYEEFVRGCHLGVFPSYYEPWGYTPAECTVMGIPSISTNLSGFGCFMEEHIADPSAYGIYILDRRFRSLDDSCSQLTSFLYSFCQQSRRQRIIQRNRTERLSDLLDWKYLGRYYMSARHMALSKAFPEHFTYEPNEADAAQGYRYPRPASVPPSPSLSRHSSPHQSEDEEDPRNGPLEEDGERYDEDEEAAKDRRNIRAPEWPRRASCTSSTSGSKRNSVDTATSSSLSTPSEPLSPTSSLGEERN
Sequence of PPAR-α (Q07869 167-468): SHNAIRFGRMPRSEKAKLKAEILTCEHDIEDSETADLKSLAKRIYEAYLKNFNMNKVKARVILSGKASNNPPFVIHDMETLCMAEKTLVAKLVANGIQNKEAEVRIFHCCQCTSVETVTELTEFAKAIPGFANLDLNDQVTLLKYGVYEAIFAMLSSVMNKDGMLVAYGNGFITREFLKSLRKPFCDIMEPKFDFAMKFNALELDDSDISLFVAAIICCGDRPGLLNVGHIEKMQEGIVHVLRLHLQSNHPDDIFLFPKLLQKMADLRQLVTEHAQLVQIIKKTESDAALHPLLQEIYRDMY

On to `O=C(O)[C@@H]1CCCN1C(=O)c1cccc(COc2ccc(-c3cc(F)cc4c3OCC4)cc2)c1` [compound of Ex. 1, 1-(3-{[4-(5-fluoro-2,3-dihydro-1-benzofuran-7-yl)phenoxy]methyl}benzoyl)-L-proline], for which the EC50 in test [1] (setting [2]) came out at 260 nM. The Emax at PPAR-α (setting [3]) was 10%.

In the case of `O=C(O)[C@@H]1CCCN1C(=O)c1cccc(COc2ccc(-c3cccc4c3OCO4)cc2)c1` [compound of Ex. 4, 1-(3-{[4-(1,3-benzodioxol-4-yl)phenoxy]methyl}benzoyl)-L-proline], in test [1] (setting [2]), the EC50 was 250 nM. Besides, the Emax on PPAR-α (setting [3]) was determined as 17%.

Compound `O=C(O)[C@@H]1CCCN1C(=O)c1cccc(COc2ccc(-c3cccc4c3OCC4)cc2)c1` [compound of Ex. 5] displayed a 50% effective concentration (EC50) in test [1] (setting [2]) of 500 nM. The Emax on PPAR-α (setting [3]) came out at 10%.

With `O=C(O)[C@@H]1CCCN1C(=O)c1cccc(COc2ccc(-c3cccc4ccoc34)cc2)c1` [compound of Ex. 7], the response in test [1] (setting [2]) was half-maximal at 260 nM (EC50). Besides, the Emax at PPAR-α (setting [3]) worked out at 17%.

`O=C(O)[C@@H]1CCCN1C(=O)c1cccc(COc2ccc(-c3cccc4c3OCC=C4)cc2)c1` [compound of Ex. 9] registered an EC50 in test [1] (setting [2]) of 320 nM. Further, the Emax at PPAR-α (setting [3]) was 11%.

In the case of `O=C(O)[C@@H]1CCCN1C(=O)c1cccc(COc2ccc(-c3cc(F)cc4c3OCC=C4)cc2)c1` [compound of Ex. 11], the Emax at PPAR-α (setting [4]) is 18%.

In the case of `O=C(O)[C@@H]1CCCN1C(=O)c1cccc(COc2ccc(-c3cc(F)c(F)c4ccoc34)cc2)c1` [compound of Ex. 15, 1-(3-{[4-(4,5-difluoro-1-benzofuran-7-yl)phenoxy]methyl}benzoyl)-L-proline], the midpoint of the response in test [1] (setting [5]), the EC50, lay at 22 nM. For the same compound, the Emax at PPAR-α (setting [4]) turned out to be 20%.

As to `O=C(O)[C@@H]1CCCN1C(=O)c1cccc(COc2ccc(-c3cc(F)c(F)c4c3OCC4)cc2)c1` [compound of Ex. 19, 1-(3-{[4-(4,5-difluoro-2,3-dihydro-1-benzofuran-7-yl)phenoxy]methyl}benzoyl)-L-proline], in test [1] (setting [5]), a half-maximal effect (EC50) was put at 31 nM. Besides, the Emax at PPAR-α (setting [4]) is 12%.

On to `CC1(C)Cc2cc(F)cc(-c3ccc(OCc4cccc(C(=O)N5CCC[C@H]5C(=O)O)c4)cc3)c2O1` [compound of Ex. 22, 1-(3-{[4-(5-fluoro-2,2-dimethyl-2,3-dihydro-1-benzofuran-7-yl)phenoxy]methyl}benzoyl)-L-proline], for which, in test [1] (setting [5]), the half-maximal effective concentration (EC50) was 180 nM. The Emax on PPAR-α (setting [4]) was found to be 15%.

`O=C(O)[C@@H]1CCCN1C(=O)c1cccc(COc2ccc(-c3cccc4[nH]ccc34)cc2)c1` [compound of Ex. 26, 1-(3-{[4-(1H-indol-4-yl)phenoxy]methyl}benzoyl)-L-proline] showed an EC50 in test [1] (setting [5]) of 160 nM. Also, the Emax at PPAR-α (setting [4]) turned out to be 13%.

In test [1] (setting [5]), `O=C1COc2c(cccc2-c2ccc(OCc3cccc(C(=O)N4CCC[C@H]4C(=O)O)c3)cc2)N1` [compound of Ex. 32, 1-(3-{[4-(3-oxo-3,4-dihydro-2H-1,4-benzoxazin-8-yl)phenoxy]methyl}benzoyl)-L-proline] had an EC50 of 750 nM. Moreover, on PPAR-α (setting [4]), the Emax stood at 3%.

`O=C(O)[C@@H]1CCCN1C(=O)c1cccc(COc2ccc(-c3cc(F)c(F)cc3S)cc2)c1` [compound of Ex. 40, 1-(3-{[(4′,5′-difluoro-2′mercaptobiphenyl-4-yl)oxy]methyl}benzoyl)-L-proline] yielded an EC50 in test [1] (setting [5]) of 110 nM. Moreover, at PPAR-α (setting [6]), the Emax was 10%.

In test [1] (setting [5]), `N#CCNc1cc(-c2ccc(OCc3cccc(C(=O)N4CCC[C@H]4C(=O)O)c3)cc2)cc(F)c1F` [compound of Ex. 42, 1-{3-[({3′-[(cyanomethyl)amino]-4′,5′-difluorobiphenyl-4-yl}oxy)methyl]benzoyl}-L-proline trifluoroacetic acid salt] gave an EC50 of 54 nM. For the same compound, the Emax at PPAR-α (setting [6]) was found to be 13%.

In turn, `O=Cc1cc(F)c(F)cc1-c1ccc(OCc2cccc(C(=O)N3CCC[C@H]3C(=O)O)c2)cc1` [compound of Ex. 43, 1-(3-{[(4′,5′-difluoro-2′-formylbiphenyl-4-yl)oxy]methyl}benzoyl)-L-proline] came in with an EC50 in test [1] (setting [5]) of 70 nM. For the same compound, on PPAR-α (setting [6]), the Emax is 11%.

As for `COC(=O)c1cc(F)c(F)cc1-c1ccc(OCc2cccc(C(=O)N3CCC[C@H]3C(=O)O)c2)cc1` [compound of Ex. 44, 1-[3-({[4′,5′-difluoro-2′-(methoxycarbonyl)biphenyl-4-yl]oxy}methyl)benzoyl]-L-proline], a half-maximal effect in test [1] (setting [5]) (EC50) was put at 810 nM. For the same compound, the Emax at PPAR-α (setting [6]) turned out to be 10%.

In the case of `CC(=O)COc1cc(-c2ccc(OCc3cccc(C(=O)N4CCC[C@H]4C(=O)O)c3)cc2)cc(F)c1F` [compound of Ex. 49, 1-[3-({[3′,4′-difluoro-5′-(2-oxopropoxy)biphenyl-4-yl]oxy}methyl)benzoyl]-L-proline], the EC50 in test [1] (setting [5]) came out at 220 nM. For the same compound, the Emax on PPAR-α (setting [6]) is 17%.

The EC50 is the concentration that produces a half-maximal response. A low value points to a more potent agent.
